Results reported in patent US20200093130A1, “APPLICATION OF TETRAHYDROBENZAZOLE IN PREPARATION OF AGRICULTURAL FUNGICIDE OR FUNGICIDE COMPOSITION AND PREPARATION METHOD THEREOF” (JIANGSU FREY AGROCHEMICALS CO., LTD, priority 2017, published 2020).
Like-named read-outs stand apart in the source and are kept apart here.

Tests used:
[1] = In vitro fungicidal activity, growth rate method (Colletotrichum capsici); format: cell-based, Acanthopteris fungi; conditions: plant disease Colletotrichum capsici
Botrytis cinerea [2] = assay: In vitro fungicidal activity, growth rate method (Cucumber gray mold); format: cell-based; set-up: key: “—” means the activity is not obvious
Fusarium moniliforme = assay: In vitro fungicidal activity, growth rate method (Rice bakanae disease); format: cell-based; set-up: key: “—” means the activity is not obvious
[3] = system: Helminthosporium carposaprum; assay: In vitro fungicidal activity, growth rate method (Corn spot); format: cell-based
[4] = format: cell-based, Acinomycete spiculata; conditions: Cucumber anthrax
Alternaria kikuchiana = assay: In vitro fungicidal activity, growth rate method (Pear black spot); format: cell-based
Sclerotinia sclerotiorum [5] = assay: In vitro fungicidal activity, growth rate method (Chili sclerotium); format: cell-based
Phytophthora = format: cell-based; conditions: Potato late blight
[6] = system: Alternaria alternata (Fr.) Keissl; assay: In vitro fungicidal activity, growth rate method (Apple altermaria leaf spot); format: cell-based
Rhizoctonia solani = assay: In vitro fungicidal activity, growth rate method (Rice sheath blight); format: cell-based
Erysiphe = assay: In vitro fungicidal activity, growth rate method (Strawberry powdery mildew); format: cell-based
Botryosphaeria = assay: In vitro fungicidal activity, growth rate method (Apple ring spot); format: cell-based; set-up: key: “—” means the activity is not obvious
Altemaria solani = assay: In vitro fungicidal activity, growth rate method (Tomato early blight); format: cell-based
Pyricularia grisea = format: cell-based; conditions: Rice blast
[7] = system: Sinoe ampelina (de Bary) Shear; assay: In vitro fungicidal activity, growth rate method (Grape anthracnose); format: cell-based; set-up: key: “—” means the activity is not obvious
Botrytis cinerea [8] = assay: In vitro fungicidal activity, growth rate method (Strawberry grey mold); format: cell-based; set-up: key: “—” means the activity is not obvious
Mycosphaerella musicola = assay: In vitro fungicidal activity, growth rate method (Banana leaf spot disease); format: cell-based
[9] = system: Fusarium oxysporum f. sp cucumerinum; assay: In vitro fungicidal activity, growth rate method (Cucumber fusarium wilt); format: cell-based; set-up: key: “—” means the activity is not obvious
[10] = system: Sphaerotheca fuliginea (Schlecht) Poll.; assay: In vitro fungicidal activity, growth rate method (Cucumber powdery mildew); format: cell-based
Cercospora arachidicola = assay: In vitro fungicidal activity, growth rate method (Peanut brown spot); format: cell-based; set-up: key: “—” means the activity is not obvious
Sclerotinia sclerotiorum [11] = assay: In vitro fungicidal activity, growth rate method (Cucumber sclerotinia rot); format: cell-based

SMILES: CC1COC(Cn2cnnc2)(c2ccc(Oc3ccc(Cl)cc3)cc2Cl)O1 (stereo not drawn) [Formula I, 4-((-(2-chloro-4-(4-chlorophenoxy)phenyl)-4-methyl-1,3-dioxapentan-2-yl)methyl)-4H-1,2,4-triazole]
- Fungicidal activity (inhibition ratio %) ([1]; 1 μg/mL): 28.70%
- Fungicidal activity (inhibition ratio %) ([1]; 5 μg/mL): 47.29%
- Fungicidal activity (inhibition ratio %) ([1]; 10 μg/mL): 53.59%
- Fungicidal activity (inhibition ratio %) ([1]; 15 μg/mL): 68.32%
- Fungicidal activity (inhibition ratio %) ([1]; 20 μg/mL): 78.96%
- Fungicidal activity (inhibition ratio %) (Botrytis cinerea [2]; 1 μg/mL): —
- Fungicidal activity (inhibition ratio %) (Botrytis cinerea [2]; 5 μg/mL): —
- Fungicidal activity (inhibition ratio %) (Botrytis cinerea [2]; 10 μg/mL): 5.10%
- Fungicidal activity (inhibition ratio %) (Botrytis cinerea [2]; 15 μg/mL): 9.98%
- Fungicidal activity (inhibition ratio %) (Botrytis cinerea [2]; 20 μg/mL): 21.26%
- Fungicidal activity (inhibition ratio %) (Fusarium moniliforme; 1 μg/mL): —
- Fungicidal activity (inhibition ratio %) (Fusarium moniliforme; 5 μg/mL): 22.26%
- Fungicidal activity (inhibition ratio %) (Fusarium moniliforme; 10 μg/mL): 36.71%
- Fungicidal activity (inhibition ratio %) (Fusarium moniliforme; 15 μg/mL): 45.62%
- Fungicidal activity (inhibition ratio %) (Fusarium moniliforme; 20 μg/mL): 61.79%
- Fungicidal activity (inhibition ratio %) ([3]; 1 μg/mL): 8.92%
- Fungicidal activity (inhibition ratio %) ([3]; 5 μg/mL): 22.44%
- Fungicidal activity (inhibition ratio %) ([3]; 10 μg/mL): 33.45%
- Fungicidal activity (inhibition ratio %) ([3]; 15 μg/mL): 44.46%
- Fungicidal activity (inhibition ratio %) ([3]; 20 μg/mL): 53.22%
- Fungicidal activity (inhibition ratio %) ([4]; 1 μg/mL): 37.85%
- Fungicidal activity (inhibition ratio %) ([4]; 5 μg/mL): 41.18%
- Fungicidal activity (inhibition ratio %) ([4]; 10 μg/mL): 53.51%
- Fungicidal activity (inhibition ratio %) ([4]; 15 μg/mL): 58.17%
- Fungicidal activity (inhibition ratio %) ([4]; 20 μg/mL): 65.73%
- Fungicidal activity (inhibition ratio %) (Alternaria kikuchiana; 1 μg/mL): 29.98%
- Fungicidal activity (inhibition ratio %) (Alternaria kikuchiana; 5 μg/mL): 35.76%
- Fungicidal activity (inhibition ratio %) (Alternaria kikuchiana; 10 μg/mL): 46.61%
- Fungicidal activity (inhibition ratio %) (Alternaria kikuchiana; 15 μg/mL): 59.78%
- Fungicidal activity (inhibition ratio %) (Alternaria kikuchiana; 20 μg/mL): 67.44%
- Fungicidal activity (inhibition ratio %) (Sclerotinia sclerotiorum [5]; 1 μg/mL): 12.81%
- Fungicidal activity (inhibition ratio %) (Sclerotinia sclerotiorum [5]; 5 μg/mL): 17.96%
- Fungicidal activity (inhibition ratio %) (Sclerotinia sclerotiorum [5]; 10 μg/mL): 25.35%
- Fungicidal activity (inhibition ratio %) (Sclerotinia sclerotiorum [5]; 15 μg/mL): 39.34%
- Fungicidal activity (inhibition ratio %) (Sclerotinia sclerotiorum [5]; 20 μg/mL): 55.18%
- Fungicidal activity (inhibition ratio %) (Phytophthora; 1 μg/mL): 27.03%
- Fungicidal activity (inhibition ratio %) (Phytophthora; 5 μg/mL): 31.96%
- Fungicidal activity (inhibition ratio %) (Phytophthora; 10 μg/mL): 43.44%
- Fungicidal activity (inhibition ratio %) (Phytophthora; 15 μg/mL): 65.08%
- Fungicidal activity (inhibition ratio %) (Phytophthora; 20 μg/mL): 73.63%
- Fungicidal activity (inhibition ratio %) ([6]; 1 μg/mL): 26.94%
- Fungicidal activity (inhibition ratio %) ([6]; 5 μg/mL): 34.48%
- Fungicidal activity (inhibition ratio %) ([6]; 10 μg/mL): 52.31%
- Fungicidal activity (inhibition ratio %) ([6]; 15 μg/mL): 66.71%
- Fungicidal activity (inhibition ratio %) ([6]; 20 μg/mL): 74.65%
- Fungicidal activity (inhibition ratio %) (Rhizoctonia solani; 1 μg/mL): 37.80%
- Fungicidal activity (inhibition ratio %) (Rhizoctonia solani; 5 μg/mL): 52.79%
- Fungicidal activity (inhibition ratio %) (Rhizoctonia solani; 10 μg/mL): 68.48%
- Fungicidal activity (inhibition ratio %) (Rhizoctonia solani; 15 μg/mL): 72.82%
- Fungicidal activity (inhibition ratio %) (Rhizoctonia solani; 20 μg/mL): 82.56%
- Fungicidal activity (inhibition ratio %) (Erysiphe; 1 μg/mL): 33.24%
- Fungicidal activity (inhibition ratio %) (Erysiphe; 5 μg/mL): 54.62%
- Fungicidal activity (inhibition ratio %) (Erysiphe; 10 μg/mL): 67.26%
- Fungicidal activity (inhibition ratio %) (Erysiphe; 15 μg/mL): 76.09%
- Fungicidal activity (inhibition ratio %) (Erysiphe; 20 μg/mL): 79.02%
- Fungicidal activity (inhibition ratio %) (Botryosphaeria; 1 μg/mL): —
- Fungicidal activity (inhibition ratio %) (Botryosphaeria; 5 μg/mL): 41.28%
- Fungicidal activity (inhibition ratio %) (Botryosphaeria; 10 μg/mL): 53.56%
- Fungicidal activity (inhibition ratio %) (Botryosphaeria; 15 μg/mL): 68.76%
- Fungicidal activity (inhibition ratio %) (Botryosphaeria; 20 μg/mL): 73.46%
- Fungicidal activity (inhibition ratio %) (Altemaria solani; 1 μg/mL): 13.20%
- Fungicidal activity (inhibition ratio %) (Altemaria solani; 5 μg/mL): 52.88%
- Fungicidal activity (inhibition ratio %) (Altemaria solani; 10 μg/mL): 67.29%
- Fungicidal activity (inhibition ratio %) (Altemaria solani; 15 μg/mL): 77.88%
- Fungicidal activity (inhibition ratio %) (Altemaria solani; 20 μg/mL): 85.86%
- Fungicidal activity (inhibition ratio %) (Pyricularia grisea; 1 μg/mL): 11.94%
- Fungicidal activity (inhibition ratio %) (Pyricularia grisea; 5 μg/mL): 25.37%
- Fungicidal activity (inhibition ratio %) (Pyricularia grisea; 10 μg/mL): 44.73%
- Fungicidal activity (inhibition ratio %) (Pyricularia grisea; 15 μg/mL): 58.23%
- Fungicidal activity (inhibition ratio %) (Pyricularia grisea; 20 μg/mL): 67.59%
- Fungicidal activity (inhibition ratio %) ([7]; 1 μg/mL): —
- Fungicidal activity (inhibition ratio %) ([7]; 5 μg/mL): 25.12%
- Fungicidal activity (inhibition ratio %) ([7]; 10 μg/mL): 42.04%
- Fungicidal activity (inhibition ratio %) ([7]; 15 μg/mL): 52.93%
- Fungicidal activity (inhibition ratio %) ([7]; 20 μg/mL): 65.18%
- Fungicidal activity (inhibition ratio %) (Botrytis cinerea [8]; 1 μg/mL): —
- Fungicidal activity (inhibition ratio %) (Botrytis cinerea [8]; 5 μg/mL): —
- Fungicidal activity (inhibition ratio %) (Botrytis cinerea [8]; 10 μg/mL): 7.12%
- Fungicidal activity (inhibition ratio %) (Botrytis cinerea [8]; 15 μg/mL): 13.46%
- Fungicidal activity (inhibition ratio %) (Botrytis cinerea [8]; 20 μg/mL): 29.22%
- Fungicidal activity (inhibition ratio %) (Mycosphaerella musicola; 1 μg/mL): 25.26%
- Fungicidal activity (inhibition ratio %) (Mycosphaerella musicola; 5 μg/mL): 31.30%
- Fungicidal activity (inhibition ratio %) (Mycosphaerella musicola; 10 μg/mL): 43.35%
- Fungicidal activity (inhibition ratio %) (Mycosphaerella musicola; 15 μg/mL): 52.11%
- Fungicidal activity (inhibition ratio %) (Mycosphaerella musicola; 20 μg/mL): 66.76%
- Fungicidal activity (inhibition ratio %) ([9]; 1 μg/mL): —
- Fungicidal activity (inhibition ratio %) ([9]; 5 μg/mL): —
- Fungicidal activity (inhibition ratio %) ([9]; 10 μg/mL): 18.32%
- Fungicidal activity (inhibition ratio %) ([9]; 15 μg/mL): 31.77%
- Fungicidal activity (inhibition ratio %) ([9]; 20 μg/mL): 48.18%
- Fungicidal activity (inhibition ratio %) ([10]; 1 μg/mL): 38.70%
- Fungicidal activity (inhibition ratio %) ([10]; 5 μg/mL): 57.29%
- Fungicidal activity (inhibition ratio %) ([10]; 10 μg/mL): 63.59%
- Fungicidal activity (inhibition ratio %) ([10]; 15 μg/mL): 78.32%
- Fungicidal activity (inhibition ratio %) ([10]; 20 μg/mL): 88.96%
- Fungicidal activity (inhibition ratio %) (Cercospora arachidicola; 1 μg/mL): —
- Fungicidal activity (inhibition ratio %) (Cercospora arachidicola; 5 μg/mL): 19.71%
- Fungicidal activity (inhibition ratio %) (Cercospora arachidicola; 10 μg/mL): 31.25%
- Fungicidal activity (inhibition ratio %) (Cercospora arachidicola; 15 μg/mL): 39.48%
- Fungicidal activity (inhibition ratio %) (Cercospora arachidicola; 20 μg/mL): 56.68%
- Fungicidal activity (inhibition ratio %) (Sclerotinia sclerotiorum [11]; 1 μg/mL): 12.55%
- Fungicidal activity (inhibition ratio %) (Sclerotinia sclerotiorum [11]; 5 μg/mL): 34.23%
- Fungicidal activity (inhibition ratio %) (Sclerotinia sclerotiorum [11]; 10 μg/mL): 51.21%
- Fungicidal activity (inhibition ratio %) (Sclerotinia sclerotiorum [11]; 15 μg/mL): 64.29%
- Fungicidal activity (inhibition ratio %) (Sclerotinia sclerotiorum [11]; 20 μg/mL): 71.84%
